Reference: US4435404A, “Carbostyril derivatives” (priority 1980, dated 1984)

How the values were obtained:
[1] = tested on: ADP-induced aggregation in rabbit platelet; assay: Inhibition effect on ADP-induced aggregation in rabbit platelet; format: cell-based; conditions: Oryctolagus cuniculus, Platelet
Method in brief: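 Citrated rabbit PRP was diluted with PPP to 300,000 platelets/mm^3 for the ADP test or 450,000/mm^3 for the collagen test. Samples were preincubated with compound for 1 min at 37 °C before adding inducer: ADP solution at 7.5×10^-5 M (stock) or collagen supernatant. Light-transmittance aggregation was recorded at 1,100 rpm stirring, and percent inhibition was calculated against control aggregation rate, with acetylsalicylic acid as reference.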

[2] = tested on: Deoxycorticosteroneacetate (DOCA)/saline hypertension rats (DHR); assay: Hypotensive effect, Tail-cuff method, DHR; format: in vivo, rat; conditions: 30 mg/kg oral, mean value ± standard deviation
Protocol: Hypotensive effect of the compounds were measured by determining the maximum blood pressure of the test animals according to a procedure of Tail-cuff method.
Test animals used were the following two types.
(2) Deoxycorticosteroneacetate (DOCA)/saline hypertension rats (DHR)
Wistar strain male rats having 150-170 g of body weight, were anesthetized with ether and the left-side kidney was enucleated. One (1) week after the operation, 10 mg/kg of DOCA was injected subcutaneously once a week and 1% NaCl aqueous solution was given as drinking water. Five (5) weeks after the operation, rats having the maximum blood pressure over 150 mmHg were selected and used as test animals which were abstained from food for overnight.
Each of compounds to be tested were administered orally and the blood pressure was measured before the administration and 1, 2, 4, 6 and 8 hours after the administration. The blood pressure was measured by using Recorder (Rectihoriz type 8S, San-ei Instrument) and Electrosthygmomanometer PE-300 (Macro Bio-systems, Houston, Tex.).

O=C(CCCOc1ccc2[nH]c(=O)ccc2c1)N(CCO)C1CCCCC1 [No. 1, 6-{3-[N-(2-hydroxyethyl)-N-cyclohexylaminocarbonyl]propoxy}carbostyril]
inhibition at 100 µM ([1]; concentration of the test compound solution 10^-4 mole): 100%
inhibition at 10 µM ([1]; concentration of the test compound solution 10^-5 mole, read-out: Inhibition effect on ADP-induced aggregation): 86%
inhibition at 1 µM ([1]; concentration of the test compound solution 10^-6 mole, read-out: Inhibition effect on ADP-induced aggregation): 45%
Maximum blood pressure after the administration (difference) ([2]; 1 hour): -46.0 ± 11.7 mmHg
Maximum blood pressure after the administration (difference) ([2]; 2 hours): -42.6 ± 6.5 mmHg
Maximum blood pressure after the administration (difference) ([2]; 4 hours): -37.6 ± 5.2 mmHg
Maximum blood pressure after the administration (difference) ([2]; 6 hours): -34.4 ± 10.5 mmHg
Maximum blood pressure after the administration (difference) ([2]; 8 hours): -29.0 ± 10.5 mmHg
